Results reported in publication PMC5863483, “Low HLA binding of diabetes-associated CD8+ T-cell epitopes is increased by post translational modifications” (BMC Immunology, 2018).
Read-outs that look alike come from different tables or passages of the source. Where no end group is shown, it is not given here.

Molecular target: HLA-A*02:01 (Homo sapiens, UniProt P04439, D140Y/D185E/D98H/E176V/E277Q/G131W/G231S/I119V/I121R/I166T/I218V/L300P/L318F/N151K/N90K/P208A/P217A/Q86G/Q94H/R138H/R169H/T345S)
Assay: HLA-peptide competition binding assay, A*02:01
[1] = unmodified (WT) insulin peptide, competition binding assay, a dash indicates IC50 >40,000 nM, read-out: A*02:01 binding (IC50 nM) WT
[2] = read-out: IC50 nM, target assay A*02:01
[3] = read-out: A*02:01 binding (IC50 nM) WT
[4] = unmodified (wild type) insulin-derived peptide, radiolabeled ligand competition, purified MHC, two-day incubation, three or more independent experiments, read-out: A*02:01 binding, WT
[5] = post-translationally modified insulin peptide, competition binding assay, a dash indicates IC50 >40,000 nM, read-out: A*02:01 binding (IC50 nM) Modified

Sequence	IC50 [2]	other results
GSLQKRGIVE [GSLQKRGIVE]	–	IC50 [1]: > 40000 nM
GVFIQVYEV [reference compound]	460 nM	–
HIAGSLAVV [reference compound]	216 nM	–
HLASEKVYAI [reference compound]	4060 nM	–
HLCGSHLVE	–	IC50 [1]: > 40000 nM
HLCGSHLVEA [reference compound]	–	IC50: 7540 nM
HLSYHRLLPL [reference compound]	4260 nM	–
HLSYHWLLPL [reference compound]	3820 nM	–
HLVEALYLVC	–	IC50 [3]: 692 nM
ILAVDGVLSV [reference compound]	2.2 nM	–
ILDKKVEKV [reference compound]	11200 nM	–
ILKDFSILL [reference compound]	39 nM	–
ILMHCQTTL [reference compound]	478 nM	–
ILVLASTITI [reference compound]	675 nM	–
IQATVMIIV [reference compound]	9040 nM	–
KCQEVLAWL [reference compound]	> 40000 nM	–
KLQVFLIVL [reference compound]	1370 nM	–
KMYAFTLES [reference compound]	880 nM	–
KTRREAEDL	–	IC50 [1]: > 40000 nM
KTRREAEDLQ	–	IC50 [1]: > 40000 nM
KVLHELFGMDI [reference compound]	11 nM	–

Sequence	IC50 [2]	other results
LALEGSLQKR	–	IC50 [4]: > 40000 nM
LALWGPDPAA [reference compound]	30300 nM	–
LASEKVYAI [reference compound]	6930 nM	–
LASEKVYTI [reference compound]	1250 nM	–
LCGSHLVEA	–	IC50 [3]: 1350 nM
LCGSHLVEAL [LCGSHLVEAL, reference compound]	> 40000 nM	IC50 [1]: > 40000 nM
LEGSLQKRG	–	IC50 [1]: > 40000 nM
LEGSLQKRGI	–	IC50 [1]: > 40000 nM
LIFDLGGGT [reference compound]	5420 nM	–
LLDVAPLSL [reference compound]	51 nM	–
LLGRFELIGI [reference compound]	233 nM	–
LLHVHHSCPL [reference compound]	–	IC50: 7840 nM
LLIDLTSFL [reference compound]	8.1 nM	–
LLLLDVAPL [reference compound]	10 nM	–
LLPPLLEHL [reference compound]	444 nM	–
LLQEYNWEL [reference compound]	35 nM	–
LLQVHHSCPL [reference compound]	–	IC50: 3090 nM
LLSILCIWV [reference compound]	–	IC50: 734 nM
LLSLFSLWL [reference compound]	–	IC50: 152 nM
LMFWSPSHSCA [reference compound]	143 nM	–
LMGDKSENV [reference compound]	–	IC50: 7370 nM

Sequence	IC50 [2]	other results
LNIDLLWSV [reference compound]	684 nM	–
LQKRGIVEQ	–	IC50 [1]: > 40000 nM
LQKRGIVEQC	–	IC50 [1]: > 40000 nM
LVCGERGFF	–	IC50 [1]: > 40000 nM
LVCGERGYF	–	IC50 [5]: > 40000 nM
LVCGERGYFY	–	IC50 [5]: > 40000 nM
LVEALYLVC	–	IC50: 11800 nM
LVEALYLVCG	–	IC50 [3]: 23300 nM
LWMRLLPLLA	–	IC50 [4]: 406 nM
LYLVCGERG	–	IC50 [4]: 28000 nM
LYLVCGERGY	–	IC50 [5]: > 40000 nM
MALWMRLLP	–	IC50 [4]: 4540 nM
MALWMRLLPL	–	IC50: 1260 nM
MRLLPLLAL [MRLLPLLAL]	–	IC50 [3]: 228 nM
MRLLPLLALL	–	IC50 [3]: 10 nM
MVWESGCTV [reference compound]	126 nM	–
NLAQDLATV [reference compound]	67 nM	–
NLFLFLFAV [reference compound]	1230 nM	–
NLLGRFELI [reference compound]	764 nM	–
NLLGRFELIGI [reference compound]	1.8 nM	–
